{"source": "patent US20070026090A1", "about": "“Treatment and prevention of inflammatory disease and mitochondrial dysfunction with high dose selenium” (priority 2003, published 2007)", "key": {"[1]": {"system": "myeloperoxidase (MPO) activity", "experiment": "Tissue inflammation: myeloperoxidase activity in colon tissue", "format": "in vivo, rat", "details": "supplemented rats, 24 h after TNBS; unsupplemented rats greater than 30-fold", "protocol": "Tissue inflammation-Myeloperoxidase activity: Colonic tissue samples (approximately 100-120 mg) were collected 4 cm proximal to the anus. Each tissue sample was homogenized in a solution containing 0.5% hexa-decyl-trimethyl-ammonium bromide (HTAB) (Sigma-Aldrich Corp, St. Louis, Mo.) buffer (0.5% HTAB in 50 mM phosphate buffer, pH 6.0). Tissue samples were minced in a test tube containing 1 ml of HTAB buffer on ice and homogenized with a Polytron tissue homogenizer (Brinkmann Instruments, Inc, Westbury N.Y., USA). The pooled homogenates and washes were sonicated in water for 20 seconds. After three cycles of freeze-thawing, the sonicated samples were centrifuged in cold for 15 min. at 40,000×g. Myeloperoxidase activity (MPO) was assayed in the supernatant as described by Krawisz (Krawisz et al., 1984) after addition of O-dianizidine-HCl (Sigma-Aldrich Corp, St Louis, Mo.) and 0.15% (v/v) H2O2 as a substrate for the MPO. The rate of change in absorbance was measured spectrophotometrically at 460 nm, and is expressed as the amount of enzyme necessary to produce a change in absorbance of 1.0 unit per minute (1 unit) per gram wet weight tissue."}, "[2]": {"system": "mitochondrial respiration in colon tissue", "experiment": "Mitochondrial respiration (oxygen consumption) in colon tissue of supplemented rats", "format": "in vivo, rat", "protocol": "Mitochondrial respiration activity in colon tissue: Mitochondrial respiration was measured by direct assessment of oxygen consumption of the tissue. Briefly, colons were removed, chilled on ice, and washed extensively with cold PBS. Colon tissue samples (5-10 mm in width, 100 mg) were incubated at ambient temperature in PBS supplemented with 5 mM glucose. Oxygen consumption was measured polarographically using a computerized Clark-type oxygen electrode. The addition of the Electron Transport Chain (complex 1) inhibitor rotenone was used to determine whether the majority of oxygen consumption measured in the colon samples was mitochondrial respiration-dependent."}, "[3]": {"system": "glutathione peroxidase (GPx)", "experiment": "GPx activity in macrophage cell extract", "format": "cell-based, murine", "details": "24 h; range 0.5-30 μM (FIG. 8B)", "protocol": "(§1) Cell culture: Murine J774.2 macrophages (kindly provided by Prof. Dov Zipori from the Weizmann Institute of Science) were grown in RPMI medium supplemented with 10% (w/v) fetal calf serum, penicillin (100 U/ml), streptomycin (100 μg/ml) and 1× glutamine at 37° C. in a humidified atmosphere consisting of 95% air and 5% CO2. Experiments were performed on cells at 60% confluence.\nGPx activity: GPx activity was determined by following the rate of NADPH oxidation at 340 nm in the presence of the substrates: 3 mM glutathione (GSH), 1.2 U glutathione reductase (GR) and 1.5% H2O2, using a microfluorometer plate reader (GENios, Tecan, Austria). The reaction contained 500 μl Tris reaction buffer (100 mM Tris Hcl, 300 mM Kcl, 5 mM EDTA, 1 mM NaN3, pH 7.0), substrates and 100 μl cell extract. Macrophages were treated with selenium for 24 h. Wells were washed twice with PBS, cells permeabilized, and scraped using 200 μl 0.2% Triton X-100. The reaction was recorded every minute for 25 minutes. Slopes were calculated and the results were adjusted according to the protein amount calculated with the Bradford reagent."}, "UCP2": {"system": "UCP2", "experiment": "UCP2 transcription and expression (RTPCR, Western blot)", "format": "cell-based, murine", "protocol": "as §1\n(§2) Western blots (Sp1, MnSOD, UCP2): Cells were grown in six-well tissue culture plates, treated with selenium for 72 h and activated with LPS and IFN-γ for 24 h. The wells were washed with PBS, scraped and centrifuged\n(§3) (5 min. 2000 RPM), and lysed by addition of boiling hot lysis buffer (1% SDS, 1 mM sodium ortho-vanadate, 10 mM Tris pH 7.4) to the pellets. Protein content was measured (BIO RAD protein assay kit) and equalized. Sample buffer (containg SDS) was added and the samples were boiled. The samples were subjected to SDS-PAGE followed by western blot analysis. Separated proteins were transferred electrophoretically from the gel to a nitrocellulose membrane (Amersham International plc, Buckinghamshire, ENGLAND). The membrane was blocked in TBS (0.15 M NaCl/10 mM Tris/HCl, pH7.4) containing 5% (v/v) skimmed milk (Blotto), then incubated over night with primary antibodies at RT (diluted 1/2000 in blotto). After being washed six times in TBST [TBS containing 0.05% (v/v) Tween 20], the membrane was incubated for 2 h at room temperature with secondary antibody (diluted 1/5000 in blotto). Immunoreactive bands were detected with ECL western blotting detection reagents (Amersham Pharmacia Biotech, Buckingammshire England) and developed on film (Fuji super RX, Dusseldorf, Germany). Primary antibodies for Sp1 and MnSOD were from BD Transduction Laboratories (Becton Dickenson and Co., San Jose, Calif. USA) and for UCP2 from Alpha Diagnostics LTD (Warszaw, Poland). Secondary antibodies were from Jackson ImmunoResearch (Jackson Labs, Bar Harbor, Maine, USA).\nReverse transcriptase-PCR (RTPCR): Total RNA was prepared and isolated by the Tri-Reagent method according to the manufacturer's protocol (Sigma, St. Louis Mo., USA). Total RNA (1 μg) was converted into cDNA using Reverse-iT first strand synthesis kit (Abgene, UK). Amplification of MnSOD and UCP2 sequences was performed by incubating 10 ng equivalents of DNA with the following oligonucleotide primers:\nLeft (sense), 5′-[…]-3′ (SEQ ID NO:7) corresponding to nucleotides 372 to 392 of mouse mRNA (GenBank Accession No. NM 011671).\nRight (antisense) 5′[…]-3′ (SEQ ID NO: 8) corresponding to nucleotides 826 to 846 of mouse mRNA (GenBank Accession No. NM 011671). The expected PCR product was 474 bp. Actual PCR product was approximately 474 bp, measured on 1.25% agarose gel in TAE containing ethidium bromide.\nPCR was performed with 28 cycles (25 cycles for GAPDH) of 30 seconds at 96° C., 30 seconds at 58° C. and 1 min at 72° C. RTPCR products were analyzed on 1.3% (w/v) agarose gels."}, "Sp1": {"system": "Sp1", "experiment": "Sp1 protein (Western blot)", "format": "cell-based, murine", "details": "FIG. 13B", "protocol": "as §2\nas §3, with “Primary antibodies for Sp1 and MnSOD were from BD Transduction Laboratories (Becton Dickenson and Co., San Jose, Calif. USA) and for UCP2 from Alpha Diagnostics LTD (Warszaw, Poland). Secondary antibodies were from Jackson ImmunoResearch (Jackson Labs, Bar Harbor, Maine, USA).” left out"}, "[4]": {"system": "hapten (TNBS)-induced colitis", "description": "Animals: Male Sprague-Dawley rats (approximately 150 g bw) received food and water ad libitum. They were kept in plastic cages with wire tops in a light-controlled room.\nHigh-dose dietary selenium supplementation: Rats received food and (unsupplemented) water ad libitum (control group). Normal selenium (control) diet included 0.2 mg selenium/kg chow. […] The high-selenium diet provided approximately 2-3 μ/gm day of selenium per animal, which is considered an acceptable excess supplementation diet for this element (Davis et al., 1998; Shilo et al., 2003).\nInduction of colitis and sample collection: Colitis was induced by administration of 0.5 ml of 2,4,6-trinitrobenzene sulphonic acid (TNBS, 100 mg/ml dissolved in 50% ethanol)through the anal canal, at a distance of 8 cm into the colon, just proximal to the splenic flexure. 24 hours after induction animals were sacrificed and the colon was removed for pathology, histocytological, biochemical or immunohistocytological analysis (Reifen et al., 2000)."}, "[5]": {"details": "in vivo; cited from earlier work"}}, "note": "Entries after “also recorded” stand apart in the source; their conditions may differ.", "data": [{"smiles": "[Se]", "note": "[selenium]", "values": [{"measurement": "myeloperoxidase elevation following hapten administration, compared to uninduced controls", "setting": "[1]", "result": "approximately 5 fold"}, {"measurement": "hapten-induced impairment in oxygen consumption", "setting": "[2]; 24 h after TNBS, supplemented vs unsupplemented (FIG. 5 C vs D), unsupplemented approximately 70% impairment", "result": "prevented a significant proportion"}, {"measurement": "oxygen consumption in healthy colon tissue", "setting": "[2]; healthy rats, supplemented vs unsupplemented (FIG. 5 B vs A)", "result": "little effect; also recorded: did not enhance"}, {"measurement": "concentration of maximum stimulation of GPx activity", "setting": "[3]", "result": 0.5, "unit": "µM"}, {"measurement": "UCP2 transcripts and protein", "setting": "UCP2; 24 or 72 hours, concentration dependent, to a lesser extent than MnSOD", "result": "reduced the abundance"}, {"measurement": "UCP2 expression, activated macrophages", "setting": "UCP2; exposure (72 hours) prior to activation, concentration dependent (FIG. 11)", "result": "decreased"}, {"measurement": "Sp-1 gene expression / synthesis (Western blot)", "setting": "Sp1", "result": "no change"}, {"measurement": "necrosis, share of the colon (gross pathology)", "setting": "[4]; 24 h after TNBS, 3 weeks high-dose supplementation, unsupplemented rat more than 80%", "result": "less than 15%"}, {"measurement": "effects on colon tissue of healthy, uninduced rats (gross pathology)", "setting": "[4]; rat, in vivo", "result": "no apparent effects"}, {"measurement": "average lifetime daily intake with biochemical and clinical symptoms", "setting": "[5]", "result": "greater than 1000 microgram"}]}]}
